Measurements reported in patent US5298522A, “6-chloro-5-fluoro-3-(2-thenoyl)-2-oxindole-1-carboxamide as an analgesic and anti-inflammatory agent while maintaining a normal urine protein/creatinine ratio” (Pfizer Inc., priority 1993, dated 1994).

Key:
[1] = Proteinuria in patients; type: in vivo, human; conditions: for induction of proteinuria: in some patients, dose not stated
[2] = Double blind placebo-controlled study, urine protein/creatinine ratio (Example 1); type: in vivo, human
Description: (§1) "Significant increase or decrease" for proteinuria effects is herein defined as an increase or decrease having statistical significance as determined by conducting an analysis of variance (ANOVA). First, a regression line is fitted to protein/creatinine (PC) ratio data for each patient and treatment period, and a slope is determined. The slope is then analyzed using an ANOVA to test for sequence, period and treatment effects, to determine if a difference exists between the control and treated groups.
(§2) Large amounts of creatinine and much smaller amounts of protein are normally excreted in the urine of normal human subjects, and a protein/creatinine ratio of approximately 0.05 to 0.1 is usually maintained.
Using a double blind placebo-controlled design, 6-chloro-5-fluoro-3-(2-thenoyl)-2-oxindole-1-carboxamide was administered to 36 patients at dose levels of 40, 80, 160 and 320 mg, once daily. A single dose was given on day 1, followed by a seven day washout period, and then dosing was continued for a further 21 days. […] In addition, following the 2nd, 8th and 22nd dose; and 240 hours after the last dose, one 20 ml aliquot of urine, following the first am void but prior to the administration of study medication, was withdrawn for measurement of quantitative protein and creatinine.

[3] = Double blind, placebo controlled, crossover study, urine protein/creatinine ratio (Example 2); type: in vivo, human; conditions: 80 mg/day, four weeks
Description: as §1, §2
Using a double blind, placebo controlled, crossover design, 6-chloro-5-fluoro-3-(2-thenoyl)-2-oxindole-1-carboxamide was administered to 25 patients at a dose level of 80 mg/day. Patients were randomized to receive either 6-chloro-5-fluoro-3-(2-thenoyl)-2-oxindole-1-carboxamide for four weeks followed by placebo for four weeks, or to receive placebo for four weeks followed by 6-chloro-5-fluoro-3-(2-thenoyl)-2-oxindole-1-carboxamide for four weeks. Patients could switch to the second leg of the treatment regimen earlier if symptoms became intolerable. […] Urine protein/creatinine ratio was determined at baseline and weekly during the study. […]

[4] = test system: carrageenin-induced rat-foot edema; test: Carrageenin-induced rat-foot edema test; type: in vivo, rats (adult, male, albino); conditions: by gavage, one hour before carrageenin
Excerpt: [Winter et al., Proc. Soc. Exp. Biol. Med., 111, 544, (1963)].
Unanesthetized, adult, male, albino rats of 150 g to 190 g body weight are numbered, weighed, and an ink mark placed on the right lateral malleolus. Each paw is immersed in mercury exactly to the ink mark. The mercury is contained in a glass cylinder, connected to a Statham Pressure Transducer. The output from the transducer is fed through a control unit to a microvoltameter. The volume of mercury displaced by the immersed paw is read. The drug is given by gavage. One hour after drug administration, edema is induced by injection of 0.05 ml of 1% solution of carrageenin into the plantar tissue of the marked paws. Immediately thereafter, the volume of the injected foot is measured. The increase in foot volume 3 hours after the injection of carrageenin constitutes the individual inflammatory response.

[5] = test system: PBQ-induced abdominal stretching in mice; test: Blockage of abdominal stretching induced by 2-phenyl-1,4-benzoquinone (PBQ); type: in vivo, mice (Carworth males, albino CF-1 strain); conditions: oral, one hour before PBQ 2 mg/kg intraperitoneally
Description: The method is based on that of Siegmund et al., Proc. Soc. Exp. Biol. Med., 95, 729-731, (1957), as adapted for high throughput [see further Milne and Twomey, Agents and Actions, 10, 31-37, (1980)]. The mice used in these experiments are Carworth males, albino CF-1 strain, weighing 18-20 g. All mice are fasted overnight prior to drug administration and testing.
6-Chloro-5-fluoro-3-(2-thenoyl)-2-oxindole-1-carboxamide is dissolved or suspended in a vehicle consisting of ethanol (5%), emulphor 620 (a mixture of polyoxyethylene fatty acid esters, 5%) and saline (90%). This vehicle also served as control. Doses are on a logarithmic scale (i.e., . . . 0.32, 1.0, 3.2, […] . . . mg/kg), and are calculated from weights of the salt when applicable. The route of administration is oral, with concentrations varied to allow a constant dosage of 10 ml/kg of mouse. The aforesaid method of Milne and Towney is used to determine efficacy and potency. […] Individual mice are then immediately placed in a warmed lucite chamber, and, starting five minutes after PBQ administration, the number of abdominal constrictions during the subsequent 5 minutes are recorded. The degree of analgesic protection, Maximal Possible Effect (% MPE), is calculated on the basis of suppression of abdominal constriction relative to counts from concurrent control animals run on the same day. […]

| proteinuria ([2]; 320 mg/day) | urine protein/creatinine ratio, drug treated groups vs placebo treated groups ([2]; 40, 80, 160 and 320 mg once daily, single dose, seven day washout, then further 21 days) | change in urine protein/creatinine ratio during treatment [3] | urine protein/creatinine ratio, drug vs placebo treatment ([3]; crossover) | Structure (SMILES) | patients with proteinuria ([1]; 80 mg/day, within four weeks) | course of proteinuria ([1]; 80 mg/day, upon discontinuation of medication) | induction of proteinuria [1] | anti-inflammatory activity [4] | analgesic activity [5] |
| --- | --- | --- | --- | --- | --- | --- | --- | --- | --- |
|  |  |  |  | NC(=O)N1C(=O)C(C(=O)c2cccs2)c2cc(Cl)ccc21 (stereo not shown) [5-chloro-3-(2-thenoyl)-2-oxindole-1-carboxamide] | 10-15% | non-progressive and reversible upon discontinuation of medication | induce non-progressive, reversible proteinuria in some patients |  |  |
| does not cause proteinuria | no significant differences | No significant changes | no significant differences | NC(=O)N1C(=O)C(C(=O)c2cccs2)c2cc(F)c(Cl)cc21 (stereo not shown) [6-Chloro-5-fluoro-3-(2-thenoyl)-2-oxindole-1-carboxamide] |  |  | does not induce proteinuria | possesses anti-inflammatory activity | possess analgesic activity |
